Results taken from patent US8821836B2, “SPARC binding peptides and uses thereof” (Abraxis BioScience, LLC, priority 2008, dated 2014).
“Also recorded” adds a separate entry of the source.

Legend:
[1] = system: PC3 prostatecarcinoma xenograft; test: Antitumor activity in PC3 xenograft model; assay type: in vivo, nude mouse; details: for tumor growth inhibition: FIG. 13
Experimental: FIG. 13 depicts the antitumor activity of PD 15 and PD 21 in a human prostate cancer/nude mouse model system.
The PD 15 and PD 21-Fc fusion proteins were assayed for antitumor activity in a murine-human PC3 prostatecarcinoma xenograft model.

[2] = system: non-SPARC proteins in 5,000 proteins on the array; test: Protein microarray analysis (Invitrogen ProtoArray v.3), off target binding
Text: FIG. 8 depicts the Protoarray used to define off target binding of PD 15 and PD21.

[3] = system: sections of a human brain tumor (SPARC expressing tumor); test: Immunohistochemical staining of tumor sections; details: IHC, FIGS. 10 and 11
Text: FIGS. 10 and 11 show the co-localization of SPARC (as indicated by immunohistochemical (IHC) staining with an anti-SPARC antibody) and the binding of PD 15 and PD 21 in sections of a human brain tumor (which have been epitope tagged for IHC staining.).

SPARC = target: T1, SPARC (Homo sapiens, UniProt P09486); test: Concentration dependent binding ELISA; details: for binding to SPARC compared with anti-SPARC antibody: ELISA, FIG. 9
T1 sequence (P09486 18-303): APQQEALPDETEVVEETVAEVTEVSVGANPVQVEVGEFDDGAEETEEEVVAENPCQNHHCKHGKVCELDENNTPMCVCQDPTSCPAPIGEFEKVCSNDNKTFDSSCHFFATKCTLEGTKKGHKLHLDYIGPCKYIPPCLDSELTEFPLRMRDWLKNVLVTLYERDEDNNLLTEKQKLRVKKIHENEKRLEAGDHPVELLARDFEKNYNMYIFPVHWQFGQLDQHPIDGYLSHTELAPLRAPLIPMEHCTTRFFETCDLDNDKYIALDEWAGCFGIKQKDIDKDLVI

HT29 colon xenograft = test: Antitumor activity in HT29 xenograft model; assay type: in vivo, mouse; details: FIG. 14

Substance	antitumor activity, comparison [1]	cross reactivity with non-SPARC proteins [2]	binding to / staining of tumor tissue [3]	affinity for SPARC, PD 15 versus PD 21 (SPARC; ELISA and IHC experiments)	binding to SPARC compared with anti-SPARC antibody (SPARC)	antitumor activity, comparison (HT29 colon xenograft)	tumor growth inhibition [1]
YTRLHHWIPPQR [PD 15]	better antitumor activity than PD21	only minimal cross reactivity	binding	higher affinity for SPARC than PD 21	only slightly weaker than that of an anti-SPARC antibody		
VTPLLKFRALSS [PD 21]		only minimal cross reactivity	binding		only slightly weaker than that of an anti-SPARC antibody	better antitumor activity than PD 15; also recorded: activity closely equivalent to Abraxane	
PD 21-Fc: fusion protein of SPARC binding peptide PD 21 with human IgG1 Fc domain (pFUSE-hIgG1-Fc2 vector) (VTPLLKFRALSS)							statistically significant tumor growth inhibition
PD 15-Fc: fusion protein of SPARC binding peptide PD 15 with human IgG1 Fc domain (pFUSE-hIgG1-Fc2 vector) (YTRLHHWIPPQR)							statistically significant tumor growth inhibition
